Structures can show the parent of a compound that is named as a salt.
Key:
Saccharomyces cerevisiae = assay: Viability determination of cultured yeast; assay type: cell-based; conditions: 1 μM dye, 15 minutes, 490 nm-excited
Procedure: A culture of Saccharomyces cerevisiae is grown in 75 mL of yeast extract-peptone-dextrose (YPD) broth for 2 weeks at 30° C., shaking at 200 rpm in a capped 250 mL Erlenmeyer flask. A 2 mL sample is taken aseptically each day. One mL of this sample is serially diluted in sterile 2% glucose solution and 0.1 mL plated on YPD agar in standard r 100 mm petri dishes. Yeast numbers in the dilution samples having visible turbidity are quantified using a Petroff-Hauser counting chamber. The other 1 mL of the sample is centrifuged in a microcentrifuge at 5,000 rpm for 5 minutes, and resuspended in 100 μL of 1 μM Dye 509 in 2% sterile dextrose solution. After incubation for 15 minutes with the dye, the sample is diluted to 3 mL and the 490 nm-excited […] fluorescence is measured relative to a series of standard fluorescein solutions spanning a 10,000-fold range in fluorescence.

[1] = test system: Lambda DNA/Hind III fragments; assay: Staining of nucleic acids in electrophoresis gels; conditions: for detection limit in DNA gel: 1% agarose/TBE minigel, 1 μM dye in 1XTBE, 30 minutes
Procedure: Two separate 1% agarose/TBE (89 mM tris-borate, 2 mM EDTA) minigels are loaded with Lambda DNA/Hind III fragments in a 3-fold serial dilution series of 1 μg, 333 ng, 111 ng, 37.0 ng, 12.4 ng 4.1 ng, 1.4ng. 0.5 ng, 0.2 ng, and 0.05 ng per lane. After the gels are subjected to electrophoresis, the gels are stained with either Dye 510 or Dye 798, as a 1 μM solution in 1XTBE for 30 minutes.
After staining, each gel is illuminated at 254 nm using an epi-illuminator.Gels are photographed with POLAROID 667 black and white print film, Dye 798 stains the gel with a detection limit of 350 pg/band, while Dye 510 stains the gel with a detection limit of 180 pg/band.

[2] = test system: rat basophilic leukemia (RBL) cells; assay: Rate of dye uptake in live cells; assay type: cell-based; conditions: 1 μM-scale dye (3 μL of 1 mM in 3 mL), excited at 490 nm, emission 520 nm; ±~2 sec
Procedure: Dye uptake data were acquired using rat basophilic leukemia (RBL) cells. A suspension of RBL cells at a concentration of 1×10^6 cells/mL is prepared in room-temperature HEPES-buffered Tyrode's buffer containing 0.1% bovine serum albumin. Three μL of a 1 mM dye solution (in DMSO) is added at T=0 to an acrylic, 1 cm pathlength fluorescence cuvette containing 3 mL of the previously prepared RBL cell suspension. The suspension is then stirred continuously with a Teflon-coated magnetic stir bar. The samples are excited at 490 nm, and the fluorescence emission of the suspension at 520 nm is measured at 200 msec intervals for at least 5 minutes. The T1/2 value represents the time, in seconds, required for the fluorescence of the suspension to reach an intensity half-way between basal fluorescence level and peak fluorescence (±~2 sec).

NIH 3T3 fibroblasts = assay: Discrimination of plasma membrane-compromised fibroblasts; assay type: cell-based; conditions: 0.1 or 1.0 μM dye, 5 minutes
Procedure: NIH 3T3 fibroblasts are grown to 75% confluency on 18 mm^2 glass coverslips under standard tissue culture conditions. Coverslips of 3T3 cells are exposed to 0.0001% to 0.1% saponin in HEPES-buffered complete saline solution (HBSS) for 10 minutes at room temperature and subsequently rinsed into HBSS containing 0.1 or 1.0 μM Dye 4100. After incubation for 5 minutes, coverslips are washed with HBSS and mounted on glass microscope slides using glass coverslips as spacers to avoid crushing the cells. The cell fluorescence is observed in the epi-fluorescence microscope using a 40X 0.85 NA objective lens and a standard rhodamine long-pass filter set (546 nm excitation/580 nm emission).

cells = conditions: background art; cited from earlier work
[3] = illumination at 254 nm, 1 μM dye

## CCN1C(=Cc2cc(Sc3ccccc3)nc3ccccc23)Sc2ccccc21 [Dye 509]
Saccharomyces cerevisiae
  fluorescence at 520 nm with increasing proportion of dead cells: increase in fluorescence at 520 nm

## CCN(CC)c1cc(C=C2Sc3ccccc3N2CC)c2ccccc2n1 [Dye 510]
[1]; illumination at 254 nm
  detection limit in DNA gel: 180 pg/band
[1]; [3]
  fluorescence colour of stained DNA-containing bands: blue-green fluorescence

## Cc1cc(C=C2Sc3ccccc3N2C)nc2ccccc12 [Dye 523-1]
[2]
  T1/2 for cell loading: 41 s

## Cc1cc(C=C2Sc3ccccc3N2C)c2ccccc2n1 [Dye 523-2]
[2]
  T1/2 for cell loading: 1 s

## CN1C(=Cc2ccnc3ccccc23)Sc2ccccc21 [Dye 798, 4-(2,3-dihydro-3-methyl-(benzo-1,3-thiazol-2-yl)-methylidine)-quinolinium tosylate]
[2]
  T1/2 for cell loading: 3 s
[1]; illumination at 254 nm
  detection limit in DNA gel: 350 pg/band
[1]; [3]
  background staining of gel: no observable background staining
  fluorescence colour of stained DNA-containing bands: blue-green fluorescence

## CN1C(=Cc2ccnc3ccccc23)Oc2ccccc21 [Dye 799]
[2]
  T1/2 for cell loading: 2 s

## CCN1C(=Cc2ccnc3ccccc23)Sc2ccccc21 [Dye 1266]
[2]
  T1/2 for cell loading: 2 s

## CCCCc1cc(C=C2Sc3ccccc3N2CC)c2ccccc2n1 [Dye 1268]
[2]
  T1/2 for cell loading: 3 s

## CCN1C(=Cc2cc(-c3ccccc3)nc3ccccc23)Sc2ccccc21 [Dye 4100]
NIH 3T3 fibroblasts; 0.0001% to 0.1% saponin
  staining of cells with compromised plasma membranes: stain brightly
NIH 3T3 fibroblasts
  staining of untreated 3T3 cells: virtually unstained

## CN1C(=Cc2ccncc2)Sc2ccccc21 [Dye 7101]
[2]
  T1/2 for cell loading: 7 s

## CN1C(=Cc2cc[n+](C)c3ccccc23)Sc2ccccc21 [Thiazole Orange, reference compound]
[2]
  T1/2 for cell loading: 9 s
cells
  staining of cells: readily stains many mammalian cells, yet does not effectively stain some eukaryotic cells
[1]; illumination of 254 nm, comparison dye
  limit of detection in DNA gel: 1-2 ng/band
